Laboratory results taken from publication PMC4047118, “BM-1197: A Novel and Specific Bcl-2/Bcl-xL Inhibitor Inducing Complete and Long-Lasting Tumor Regression In Vivo” (PLoS ONE, 2014).

Columns and labels:
H82 = assay: SCLC cell growth inhibition (WST-8), H82; type: cell-based; details: Homo sapiens, NCI-H82; 96-h incubation, means ± SD (n = 3–6)
Description: (§1) All the SCLC cell lines were purchased from American Type Culture Collection (Manassas, VA) and cultured as recommended. All these cell lines were passaged fewer than 6 months after purchase. MCL1 knockout (MCL1^−/−) MEF cells were kindly provided by Dr. David Huang (The Walter and Eliza Hall Institute of Medical Research, Melbourne, Australia). Cell growth inhibition was evaluated by means of a WST-8 assay (Dojindo, Rockville, MD) as described previously. Mitochondrial membrane potential was determined by JC-1 staining using a JC-1 Mitochondrial Membrane Potential Assay kit (Cayman). Apoptosis analysis was performed using an Annexin V/propidium iodide (PI) apoptosis detection kit (Roche Applied Sciences, Indianapolis, IN).

Bcl-xL [1] = target: Bcl-xL (Homo sapiens, UniProt Q07817); assay: fluorescence-polarization (FP) binding assay, Bcl-xL; details: means ± SD (n≥3)
Bcl-xL (Homo sapiens, UniProt Q07817), sequence (Q07817 whole entry): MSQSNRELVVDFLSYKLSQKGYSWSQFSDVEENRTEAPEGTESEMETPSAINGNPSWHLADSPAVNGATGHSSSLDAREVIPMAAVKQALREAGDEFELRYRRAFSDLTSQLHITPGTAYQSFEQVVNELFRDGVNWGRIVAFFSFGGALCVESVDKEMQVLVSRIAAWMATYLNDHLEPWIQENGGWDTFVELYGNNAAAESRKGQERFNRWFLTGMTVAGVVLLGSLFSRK
Description: BM-1197 ( Fig 1 ), was synthesized in a similar manner as described for BM-1074 [16]. We evaluated the binding affinities of BM-1197 to Bcl-2, Bcl-xL and Mcl-1 proteins using our optimized fluorescence-polarization (FP) binding assays.
Data are expressed as means ± SD (n≥3).

DMS79 = assay: SCLC cell growth inhibition (WST-8), DMS79; type: cell-based; details: Homo sapiens, DMS-79; 96-h incubation, means ± SD (n = 3–6)
Description: as §1

H889 = assay: SCLC cell growth inhibition (WST-8), H889; type: cell-based; details: Homo sapiens, NCI-H889; 96-h incubation, means ± SD (n = 3–6)
Description: as §1

platelets = assay: platelet count / on-target platelet toxicity in mice; type: in vivo
Description: BM-1197 was administered by IV bolus injected into the tail vein of the mice. Mice were euthanized at different time points with CO2, then ∼0.2 ml of blood was drawn by cardiac puncture using an EDTA treated syringe, transferred to an EDTA treated tube and sent immediately for a Complete Blood Count. The samples were read at the University of Michigan Animal Diagnostic Laboratory on a HEMAVET 950FS Hematology Analyzer.
Figure 11 BM-1197 decreases platelet count in mice. BM-1197 was administered by IV bolus injected into the tail vein. At the indicated time points the mice were euthanized and blood was drawn for complete blood count. Data are mean ± SEM (n = 3).

H1963 xenograft tumors = assay: H1963 subcutaneous xenograft model; type: in vivo, SCID mice
Description: Tumor sizes were measured 2–3 times per week. Tumor growth inhibition was calculated by using the formula: 100% (mean volume of controls - mean volume of treated)/mean volume of controls.
Figure 10 In vivo antitumor activity of BM-1197. […] Data shown are mean ± SEM for 6–8 mice. (E & F) SCID mice bearing H146 or H1963 cells were treated with 10 mg/kg of BM-1197 IV for the indicated times. Tumor lysates were analyzed by immunoblotting.

H211 = assay: SCLC cell growth inhibition (WST-8), H211; type: cell-based; details: Homo sapiens, NCI-H211; 96-h incubation, means ± SD (n = 3–6)
Description: as §1

[2] = test system: BM-1197-insensitive SCLC cell lines; assay: MCL1 shRNA knockdown, growth inhibition by WST assay; type: cell-based, human; details: MCL1 shRNA 2 days, then drug 2 days
Description: ON-TARGETplus SMARTpools for mouse Bax and Bak and non-targeting negative control siRNAs were obtained from Dhamarcon. Transfection was performed using Lipofectamine RNAiMAX (Invitrogen). Lentiviral vector for scrambled and human MCL1 shRNA and lentivirus infection were described previously. Immunoblotting was performed using a published procedure. For immunoprecipitation assays, cells lysed with CHAPS buffer (150 mM NaCl, 10 mM HEPES [pH 7.4], 0.5% Chaps) or Triton buffer (150 mM NaCl, 10 mM HEPES [pH 7.4], 0.5% Triton X-100) supplemented with Complete protease inhibitors (Roche). Immunoprecipitation and immunoblot assays were performed with the indicated antibodies. Active Bax was detected by immunoprecipitation with the Bax 6A7 antibody, which recognizes only the conformationally changed Bax protein [27].
Figure 12 Effects of MCL1 knockdown on BM-1197-induced apoptosis. (A) Cells were transduced with lentiviral particles containing scrambled (SCR) or MCL1-specific shRNAs for 2 days, then treated with BM-1197 for 2 days. The growth-inhibitory activity of BM-1197 was assessed by WST assay. Data are representative of three independent experiments. (B) Cells were transduced with lentiviral particles containing scrambled (SCR) or MCL1-specific shRNAs for 2 days then treated with BM-1197 (100 nM) for 20 h before harvested for immunoblotting.

H1963 = assay: SCLC cell growth inhibition (WST-8), H1963; type: cell-based; details: Homo sapiens, NCI-H1963; 96-h incubation, means ± SD (n = 3–6)
Description: as §1

SW1271 = assay: SCLC cell growth inhibition (WST-8), SW1271; type: cell-based; details: Homo sapiens, 96-h incubation, means ± SD (n = 3–6)
Description: as §1

H187 = assay: SCLC cell growth inhibition (WST-8), H187; type: cell-based; details: Homo sapiens, NCI-H187; 96-h incubation, means ± SD (n = 3–6)
Description: as §1

Bcl-xL [3] = target: T1, Bcl-xL (Mus musculus, UniProt Q64373); assay: cellular thermal shift assay (CETSA), Bcl-xL; type: cell-based; details: MEF MCL1−/− cells
T1 construct: endogenous in cells; host or cells: MEF MCL1-/- cells
T1 sequence (Q64373 whole entry): as the sequence (Q07817 whole entry) above, with G40E, S43A, M45R, A168S, E193D counted along it
Description: Drug-target engagement was assessed using CETSA as described by Molina et al.. Briefly, cells were treated with drugs for 1 h, then harvested, washed with PBS, and resuspended in PBS. The resuspended cells were freeze-thawed 4 times. The soluble fraction (lysate) was separated from cell debris by centrifugation at 20000×g for 20 minutes at 4°C and then analyzed by Western blots.
Drug-treated cells were heated at gradient temperature from 42°C to 62°C for 3 min then freeze-thawed 4 times. The soluble fractions of the lysed cells were analyzed by immunoblotting. (B) MEF MCL1^− ^/− cells were treated with drugs at the indicated doses for 1 h before collected for CETSA.

H1417 = assay: SCLC cell growth inhibition (WST-8), H1417; type: cell-based; details: Homo sapiens, NCI-H1417; 96-h incubation, means ± SD (n = 3–6)
Description: as §1

- IC50 (Bcl-xL [1]): 5.2 ± 0.6 nM
- Ki (Bcl-xL [1]): < 1 nM
- IC50 (H889): 82 ± 20 nM
- weight loss (H1963 xenograft tumors; both daily and weekly dose-schedules): < 10%
- IC50 (H211): 6 ± 5 nM
- IC50 (H1963): 5 ± 2 nM
- IC50 (SW1271): 306 ± 116 nM
- IC50 (H187): 31 ± 4 nM
- thermal stability of Bcl-xL protein (Bcl-xL [3]; 1 µM, 1 h): enhanced
- lowest concentration that efficiently stabilized BCL-xL protein (Bcl-xL [3]; 1 h treatment): 16 nM
- IC50 (H1417): 3 ± 1 nM
Compound: Cc1c(S(C)(=O)=O)c(-c2cc(F)cc(N3CCN(c4ccc(NS(=O)(=O)c5ccc(N[C@H](CCN6CCC(O)CC6)CSc6ccccc6)c(S(=O)(=O)C(F)(F)F)c5)cc4)CC3)c2)c(-c2ccc(Cl)cc2)n1C(C)C [BM-1197]
- IC50 (H82): 698 ± 354 nM
- IC50 (DMS79): 54 ± 30 nM
- lowest platelet count (platelets; 15 mg/kg IV bolus, at 24 h): 96000 µL⁻¹
- bleeding (platelets; repeated daily or weekly intravenous doses in efficacy experiments): did not observe any bleeding
- decrease of mean tumor volume seven days after initiation of treatment (H1963 xenograft tumors; 10 mg/kg daily IV dosing): > 90%
- mice with tumor regrown 40 days after the last dose (H1963 xenograft tumors; 10 mg/kg daily IV dosing): 1 of 6
- mice with complete tumor regression (H1963 xenograft tumors; 10 mg/kg daily IV dosing (5 days per week), 6 mice): 6 mice
- mice tumor free for 61 days after the last dose (H1963 xenograft tumors; 10 mg/kg daily IV dosing, 6 mice): 5 mice
- mice with palpable tumor on day 59 (H1963 xenograft tumors; daily dosing at 10 mg/kg): one of six mice
- apoptosis biomarkers in H1963 tumors (H1963 xenograft tumors; single dose 10 mg/kg IV, as early as 3 h, persisting at least 24 hr): rapid and robust caspase-3 activation and PARP cleavage
- duration of complete tumor regression in 5 out of 6 mice (H1963 xenograft tumors; weekly dosing (15 mg/kg)): 38 days
- duration of complete tumor regression in all mice (H1963 xenograft tumors; weekly dosing (15 mg/kg)): 17 days
- reduction of mean tumor volume after a single dose (H1963 xenograft tumors; weekly dosing (15 mg/kg)): 66%
- tumor response after two doses (H1963 xenograft tumors; weekly dosing (15 mg/kg)): complete tumor regression
- mice with re-occurring tumor on day 59 (H1963 xenograft tumors; weekly dosing at 15 mg/kg): all mice
- insensitive cell lines in which depletion of MCL1 dramatically enhanced inhibitory activity [2]: 4 of 5
